Literature values, collected in patent US11571429B2, “Method and compounds for treating peripheral neuropathy” (UPEXMED CO. LTD., priority 2017, dated 2023).

System: diabetic neuropathy pain
Conditions: taken orally

CN(C)CCC=C1c2ccccc2CCc2ccccc21 [Amitriptyline, amitriptyline]
NNT; number of patients needed to treat for at least 50% pain relief: 1.3
